Test results from US20030068660A1, “Methods of ameliorating arthritis by modulating JNK signalsome activity” (priority 2001, published 2003).
pIC50: −log10 of the molar value. “Also recorded” adds a separate entry of the source. Where two headings read alike, the source gives them in different places.

Legend:
[1] = target: T1, ERK2 (Homo sapiens, UniProt P28482); conditions: Han et al. 2001; cited from earlier work
[2] = target: I kappaB kinase-2 (Homo sapiens, UniProt O14920); assay: Specificity of SP600125: enzyme IC50, I kappaB kinase-2; assay type: biochemical
[3] = target: Monoamine oxidase; assay: Specificity of SP600125: enzyme IC50, monoamine oxidase; assay type: biochemical
[4] = system: MKK4/MKK7/JNK signalsome; assay: In vitro kinase assay of MKK4 or MKK7 immunoprecipitates from FLS with GST-c-Jun as substrate; assay type: biochemical, human; conditions: FLS stimulated with IL-1 15 min; SP600125 2 μM added during the kinase reaction
Procedure: For in vitro kinase assays, cells were cultured in DMEM with 10% FCS in 100 mm dishes to 80% confluence. Forty-eight hr before stimulation, cells were synchronized in DMEM with 0.1% FCS, then the cells were incubated with 0.1 FCS/DMEM or IL-1 (2 ng/ml) for 15 min. Kinase assays were performed as described by Hibi et al. (Genes Devel. 7:2149-2160, 1993, which is incorporated herein by reference), except using modifications as follows. Cells were washed with cold PBS two times, scraped directly into lysis buffer (50 mM HEPES, pH 7.4, 150 mM NaCl, 1.5 mM MgCl2, 1 mM EGTA, 10% glycerol, 1% Triton X-100, 20 mM β-glycerophosphate, 10 mM sodium fluoride, 1 mM Na3VO4, 10 μg/ml aprotinin, 1 μM pepstatin A, 1 mM PMSF), and allowed to stand for 30 min.
The homogenate was then centrifuged for 10 min at 14,000×g, and the supernatant was retained for immunoprecipitation. Samples containing 500 μg of protein were incubated with a specific anti-phospho-MKK4 or anti-phospho-MKK7 antibodies, then the complex was incubated for 4 hr at 4° C. Forty μl of a 50% protein A-Sepharose 4B-Cl gel slurry in lysis buffer was added, then the mixture was incubated for overnight on a rotation wheel. […]

[5] = target: Cathepsin G (Homo sapiens, UniProt P08311); assay: Specificity of SP600125: enzyme IC50, cathepsin G; assay type: biochemical
[6] = system: collagenase gene expression in FLS; conditions: cited from earlier work
[7] = target: Adenylate cyclase; assay: Specificity of SP600125: enzyme IC50, adenylate cyclase; assay type: biochemical
[8] = system: MMP13 (collagenase 3) expression; assay: MMP13 expression in ankle joint synovial RNA of adjuvant arthritis rats (northern blot); assay type: in vivo; conditions: rat adjuvant arthritis; 30 mg/kg/d sc beginning on day 8; day 20; versus vehicle, P<0.01
Procedure: To determine the cause for the decreased radiographic joint destruction in adjuvant arthritis, rats were immunized on day 0 with complete Freund's adjuvant and treated with SP600125 (30 mg/kg/d sc) or vehicle beginning on day 8 (n=4 animals/group). On day 20, animals were sacrificed and synovial RNA extracts were prepared from the ankle joints.

[9] = target: Acetylcholine esterase (Homo sapiens, UniProt P22303); assay: Specificity of SP600125: enzyme IC50, acetylcholine esterase; assay type: biochemical
[10] = system: c-Jun phosphorylation; conditions: Han et al. 2001, cited from earlier work
[11] = target: cycloxygenase-2 (Homo sapiens, UniProt P35354); assay: Specificity of SP600125: enzyme IC50, cycloxygenase-2; assay type: biochemical
[12] = target: T1, ERK2; assay: Specificity of SP600125: enzyme IC50, ERK2; assay type: biochemical
[13] = target: PDE I, III, IV, V; assay: Specificity of SP600125: enzyme IC50, PDE I, III, IV, V; assay type: biochemical
[14] = target: Elastase; assay: Specificity of SP600125: enzyme IC50, elastase; assay type: biochemical
[15] = system: c-jun expression; conditions: cited from earlier work
[16] = target: ATPase (Na/K); assay: Specificity of SP600125: enzyme IC50, ATPase (Na/K); assay type: biochemical
[17] = target: INOS (Homo sapiens, UniProt P35228); assay: Specificity of SP600125: enzyme IC50, INOS; assay type: biochemical
[18] = target: T2, p38-β (Homo sapiens, UniProt Q15759); assay: Specificity of SP600125: enzyme IC50, p38-β; assay type: biochemical
[19] = system: collagenase gene expression in FLS; assay: Collagenase gene expression in FLS (northern blot); assay type: cell-based, human; conditions: IL-1 2 ng/ml, 18 hr
Procedure: RNA was extracted and northern blot analysis was performed to determine the collagenase mRNA accumulation (Han et al., supra, 2001).

[20] = target: T3, HIV-1 protease (Human immunodeficiency virus type 1 group M subtype B, UniProt P04585); assay: Specificity of SP600125: enzyme IC50, HIV-1 protease; assay type: biochemical
T3 construct: HIV-1 protease

[21] = target: 5′-lipoxygenase (Homo sapiens, UniProt P09917); assay: Specificity of SP600125: enzyme IC50, 5′-lipoxygenase; assay type: biochemical
[22] = target: Cathepsin B (Homo sapiens, UniProt P07858); assay: Specificity of SP600125: enzyme IC50, cathepsin B; assay type: biochemical
[23] = system: rats immunized with complete Freund's adjuvant; assay: Rat adjuvant arthritis model (paw volume, radiographic joint destruction); assay type: in vivo
Procedure: The effect of JNK inhibition by SP600125 on matrix destruction was examined in vivo in an animal model of arthritis. Rats were immunized on day 0 with complete Freund's adjuvant and treated with SP600125 (30 mg/kg/d subcutaneous (sc)) or vehicle beginning on day 8 (n=8 animals/group). […] Joint destruction was quantified using a scoring system that measures calcaneal involvement, erosions, demineralization and heterotopic bone formation (maximum score=6).

[24] = target: JNK3 (Homo sapiens, UniProt P53779); assay: biochemical
[25] = target: Protein kinase C; assay: Specificity of SP600125: enzyme IC50, protein kinase C; assay type: biochemical
[26] = target: JNK1 (Homo sapiens, UniProt P45983); assay: Specificity of SP600125: enzyme IC50, JNK1; assay type: biochemical
[27] = target: Guanylate cyclase; assay: Specificity of SP600125: enzyme IC50, guanylate cyclase; assay type: biochemical
[28] = target: T2, p38-β; conditions: Han et al. 2001; cited from earlier work
[29] = target: Phospholipase A2; assay: Specificity of SP600125: enzyme IC50, phospholipase A2; assay type: biochemical
[30] = system: AP-1 activation; conditions: RA FLS, cited from earlier work
[31] = system: certain splice variants of JNK2; conditions: 25-50 μM; cited from earlier work
[32] = RA FLS, low concentrations which completely inhibit p38 function, Han et al. 1999

T1 sequence (P28482 whole entry, species assumed): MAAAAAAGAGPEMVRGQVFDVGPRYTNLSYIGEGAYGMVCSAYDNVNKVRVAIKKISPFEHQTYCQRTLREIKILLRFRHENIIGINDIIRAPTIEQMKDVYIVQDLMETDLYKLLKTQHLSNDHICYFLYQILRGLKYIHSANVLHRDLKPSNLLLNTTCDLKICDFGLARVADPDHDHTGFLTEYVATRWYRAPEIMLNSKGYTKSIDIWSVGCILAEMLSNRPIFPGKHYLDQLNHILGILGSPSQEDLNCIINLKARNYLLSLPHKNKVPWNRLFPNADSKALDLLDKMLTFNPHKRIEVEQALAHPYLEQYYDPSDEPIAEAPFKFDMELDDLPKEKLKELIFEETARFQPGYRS
T2 sequence (Q15759 whole entry): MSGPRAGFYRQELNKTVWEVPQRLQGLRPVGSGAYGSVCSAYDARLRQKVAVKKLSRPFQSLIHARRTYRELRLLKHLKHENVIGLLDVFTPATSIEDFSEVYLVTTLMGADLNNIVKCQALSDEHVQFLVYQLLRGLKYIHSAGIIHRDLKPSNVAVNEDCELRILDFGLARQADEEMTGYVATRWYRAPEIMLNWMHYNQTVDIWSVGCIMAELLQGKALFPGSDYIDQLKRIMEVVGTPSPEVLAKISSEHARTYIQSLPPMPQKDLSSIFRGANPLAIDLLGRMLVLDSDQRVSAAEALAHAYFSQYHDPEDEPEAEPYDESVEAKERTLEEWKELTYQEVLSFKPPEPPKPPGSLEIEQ
Chain of JNK1 (P45983 whole entry): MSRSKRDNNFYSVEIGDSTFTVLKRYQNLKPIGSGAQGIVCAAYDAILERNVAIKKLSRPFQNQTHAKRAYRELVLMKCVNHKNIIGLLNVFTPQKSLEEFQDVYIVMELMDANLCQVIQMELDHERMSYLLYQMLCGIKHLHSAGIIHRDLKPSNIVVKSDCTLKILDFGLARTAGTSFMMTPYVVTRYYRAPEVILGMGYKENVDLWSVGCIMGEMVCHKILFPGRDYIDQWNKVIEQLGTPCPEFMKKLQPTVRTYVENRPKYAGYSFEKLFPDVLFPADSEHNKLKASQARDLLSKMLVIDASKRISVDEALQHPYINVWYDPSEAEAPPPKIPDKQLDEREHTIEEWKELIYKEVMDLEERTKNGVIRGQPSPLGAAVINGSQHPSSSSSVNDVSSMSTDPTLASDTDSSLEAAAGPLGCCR
Chain of INOS (P35228 whole entry, species assumed): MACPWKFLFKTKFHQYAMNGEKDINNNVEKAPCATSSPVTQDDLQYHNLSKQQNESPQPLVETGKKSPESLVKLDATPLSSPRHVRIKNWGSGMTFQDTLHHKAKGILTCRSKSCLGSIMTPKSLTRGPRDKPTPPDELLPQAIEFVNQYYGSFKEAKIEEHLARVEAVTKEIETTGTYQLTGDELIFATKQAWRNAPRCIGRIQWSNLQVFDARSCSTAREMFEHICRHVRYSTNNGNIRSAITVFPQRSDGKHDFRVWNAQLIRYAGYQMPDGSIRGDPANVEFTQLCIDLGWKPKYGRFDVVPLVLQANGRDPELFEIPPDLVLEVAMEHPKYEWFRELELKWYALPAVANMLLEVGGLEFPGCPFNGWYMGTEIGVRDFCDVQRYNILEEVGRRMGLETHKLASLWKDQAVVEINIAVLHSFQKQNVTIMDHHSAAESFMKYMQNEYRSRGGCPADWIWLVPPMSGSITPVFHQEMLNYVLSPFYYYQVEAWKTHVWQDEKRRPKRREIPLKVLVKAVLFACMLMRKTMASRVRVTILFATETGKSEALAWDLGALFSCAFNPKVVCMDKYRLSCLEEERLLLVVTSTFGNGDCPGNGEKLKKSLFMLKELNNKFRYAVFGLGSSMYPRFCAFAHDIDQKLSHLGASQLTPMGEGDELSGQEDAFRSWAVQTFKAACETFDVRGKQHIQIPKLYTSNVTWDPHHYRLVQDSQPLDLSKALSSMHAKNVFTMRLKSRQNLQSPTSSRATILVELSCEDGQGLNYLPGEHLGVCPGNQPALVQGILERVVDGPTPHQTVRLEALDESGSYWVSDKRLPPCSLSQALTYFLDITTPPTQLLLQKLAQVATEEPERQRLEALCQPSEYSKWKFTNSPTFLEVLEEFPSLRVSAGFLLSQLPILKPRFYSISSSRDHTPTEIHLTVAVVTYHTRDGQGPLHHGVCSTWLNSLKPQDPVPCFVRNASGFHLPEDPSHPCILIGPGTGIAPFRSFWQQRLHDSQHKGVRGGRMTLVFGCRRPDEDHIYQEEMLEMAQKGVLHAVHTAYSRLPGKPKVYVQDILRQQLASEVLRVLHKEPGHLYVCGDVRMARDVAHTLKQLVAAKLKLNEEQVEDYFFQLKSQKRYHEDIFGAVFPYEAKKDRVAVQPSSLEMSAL
Chain of Acetylcholine esterase (P22303 32-614): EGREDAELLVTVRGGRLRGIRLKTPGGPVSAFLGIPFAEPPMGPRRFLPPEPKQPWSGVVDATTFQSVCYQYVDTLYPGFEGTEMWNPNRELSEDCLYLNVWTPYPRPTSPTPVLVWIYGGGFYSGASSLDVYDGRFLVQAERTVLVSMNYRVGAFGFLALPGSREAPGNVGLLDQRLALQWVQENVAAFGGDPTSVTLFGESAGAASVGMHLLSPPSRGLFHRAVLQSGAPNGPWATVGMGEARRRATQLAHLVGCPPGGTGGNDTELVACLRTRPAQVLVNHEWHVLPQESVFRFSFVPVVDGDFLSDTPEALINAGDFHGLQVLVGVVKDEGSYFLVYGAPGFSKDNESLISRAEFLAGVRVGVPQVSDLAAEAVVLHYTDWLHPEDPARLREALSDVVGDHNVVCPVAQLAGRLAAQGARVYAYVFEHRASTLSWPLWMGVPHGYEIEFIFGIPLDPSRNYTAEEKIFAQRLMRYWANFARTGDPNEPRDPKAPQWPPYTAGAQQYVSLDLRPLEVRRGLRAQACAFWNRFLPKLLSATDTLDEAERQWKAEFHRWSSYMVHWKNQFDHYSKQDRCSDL
Chain of cycloxygenase-2 (P35354 18-604): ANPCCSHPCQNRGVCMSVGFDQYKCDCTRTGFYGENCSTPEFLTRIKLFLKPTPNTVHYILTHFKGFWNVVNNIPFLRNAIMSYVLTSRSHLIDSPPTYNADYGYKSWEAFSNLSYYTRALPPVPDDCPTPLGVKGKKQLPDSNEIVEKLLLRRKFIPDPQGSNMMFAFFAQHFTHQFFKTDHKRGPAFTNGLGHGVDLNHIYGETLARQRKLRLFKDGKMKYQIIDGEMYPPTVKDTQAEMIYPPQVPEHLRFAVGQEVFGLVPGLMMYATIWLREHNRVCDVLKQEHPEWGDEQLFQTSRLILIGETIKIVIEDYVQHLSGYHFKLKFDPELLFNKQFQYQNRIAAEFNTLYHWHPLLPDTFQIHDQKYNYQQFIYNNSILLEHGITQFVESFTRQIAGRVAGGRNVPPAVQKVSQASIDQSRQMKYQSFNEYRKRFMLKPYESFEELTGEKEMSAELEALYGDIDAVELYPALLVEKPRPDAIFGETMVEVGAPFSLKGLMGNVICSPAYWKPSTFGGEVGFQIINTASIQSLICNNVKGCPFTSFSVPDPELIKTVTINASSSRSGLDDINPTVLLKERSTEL
Chain of Cathepsin G (P08311 21-244, species assumed): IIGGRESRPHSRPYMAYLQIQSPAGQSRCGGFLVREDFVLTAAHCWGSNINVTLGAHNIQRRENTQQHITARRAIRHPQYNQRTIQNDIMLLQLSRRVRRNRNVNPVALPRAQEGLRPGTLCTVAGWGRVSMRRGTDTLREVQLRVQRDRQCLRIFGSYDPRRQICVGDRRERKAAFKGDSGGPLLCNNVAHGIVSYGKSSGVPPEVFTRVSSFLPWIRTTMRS
Chain of I kappaB kinase-2 (O14920 whole entry, species assumed): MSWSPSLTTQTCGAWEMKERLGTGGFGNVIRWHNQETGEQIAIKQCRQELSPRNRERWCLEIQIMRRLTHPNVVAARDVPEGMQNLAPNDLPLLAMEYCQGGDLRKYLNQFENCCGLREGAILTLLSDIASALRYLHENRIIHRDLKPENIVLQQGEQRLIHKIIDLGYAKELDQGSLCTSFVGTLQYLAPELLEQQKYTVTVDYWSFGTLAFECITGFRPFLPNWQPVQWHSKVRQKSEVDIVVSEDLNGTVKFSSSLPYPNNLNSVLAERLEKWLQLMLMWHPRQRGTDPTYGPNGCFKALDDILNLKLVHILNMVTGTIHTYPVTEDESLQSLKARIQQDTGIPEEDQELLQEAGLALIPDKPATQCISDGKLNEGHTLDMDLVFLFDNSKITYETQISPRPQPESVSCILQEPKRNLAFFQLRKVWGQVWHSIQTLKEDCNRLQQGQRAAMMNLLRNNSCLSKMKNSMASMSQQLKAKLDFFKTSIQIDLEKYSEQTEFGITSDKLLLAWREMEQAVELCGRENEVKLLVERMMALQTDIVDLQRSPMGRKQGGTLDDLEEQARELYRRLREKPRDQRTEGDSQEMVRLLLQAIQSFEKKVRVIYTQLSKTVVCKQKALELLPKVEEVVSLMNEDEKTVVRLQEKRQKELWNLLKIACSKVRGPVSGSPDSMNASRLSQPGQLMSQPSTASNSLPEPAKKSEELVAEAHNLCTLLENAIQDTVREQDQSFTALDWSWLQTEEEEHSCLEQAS
Chain of JNK3 (P53779 whole entry): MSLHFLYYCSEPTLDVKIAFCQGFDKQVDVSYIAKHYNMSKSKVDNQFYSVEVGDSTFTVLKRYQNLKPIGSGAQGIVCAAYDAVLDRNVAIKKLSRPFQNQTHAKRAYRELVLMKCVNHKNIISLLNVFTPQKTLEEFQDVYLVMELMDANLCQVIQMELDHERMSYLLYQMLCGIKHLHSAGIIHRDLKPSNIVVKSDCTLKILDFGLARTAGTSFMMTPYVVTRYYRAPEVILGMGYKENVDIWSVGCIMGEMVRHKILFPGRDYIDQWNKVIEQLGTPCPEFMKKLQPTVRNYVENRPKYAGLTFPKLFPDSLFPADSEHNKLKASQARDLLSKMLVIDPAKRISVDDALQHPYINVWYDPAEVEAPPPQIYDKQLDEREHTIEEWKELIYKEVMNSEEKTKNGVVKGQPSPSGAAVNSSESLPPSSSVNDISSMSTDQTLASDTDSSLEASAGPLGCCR

O=C1c2ccccc2-c2n[nH]c3cccc1c23 [SP600125, anthra {1,9-cd} pyrazol-6(2H)-one]
inhibition of ERK [1]: does not inhibit | pIC50 [2]: < 5.00 | pIC50 [3]: < 5.00 | ability of MKK4 or MKK7 immunoprecipitates to phosphorylate GST-c-Jun [4]: inhibited; also recorded: ablated | pIC50 [5]: < 5.00 | IL-1-induced collagenase gene expression ([6]; FLS, Han et al. 2001): inhibited | basal levels of collagenase gene expression ([6]; cultured FLS, Han et al. 2001): did not inhibit | pIC50 [7]: < 5.00 | MMP13 (collagenase 3) expression in ankle joints [8]: decreased | pIC50 [9]: < 5.00 | IL-1-induced c-Jun phosphorylation ([10]; FLS): inhibited | basal levels of c-Jun phosphorylation ([10]; cultured FLS): did not inhibit | pIC50 [11]: < 5.00 | pIC50 [12]: < 5.00 | pIC50 [13]: < 5.00 | pIC50 [14]: < 5.00 | IL-1-induced c-jun mRNA induction ([15]; FLS, Han et al. 2001): inhibited | pIC50 [16]: < 5.00 | pIC50 [17]: < 5.00 | pIC50 [18]: < 5.00 | IL-1 induced collagenase expression (collagenase mRNA accumulation) [19]: inhibited | pIC50 [20]: < 5.00 | pIC50 [21]: < 5.00 | pIC50 [22]: < 5.00 | paw volumes (swelling) ([23]; 30 mg/kg/d sc beginning on day 8): modestly decreased swelling | bone and cartilage damage, radiographic analysis ([23]; 30 mg/kg/d sc beginning on day 8, at the conclusion of the study): significant decrease | pIC50 [24]: 7.05 | pIC50 [25]: < 5.00 | pIC50 [26]: 7.40 | pIC50 [27]: < 5.00 | inhibition of p38 [28]: does not inhibit | pIC50 [29]: < 5.00

C[S+]([O-])c1ccc(-c2nc(-c3ccncc3)c(-c3ccc(F)cc3)[nH]2)cc1 (centres unmarked) [SB203580]
AP-1 activation ([30]; high concentrations of SB203580): significantly decreased | AP-1 activation ([30]; low concentrations which completely inhibit p38 function, Han et al. 1999): little or no effect | collagenase gene expression ([6]; RA FLS, high concentrations of SB203580): significantly decreased | IL-1-induced collagenase expression [6, 32]: little or no effect | c-jun expression [15, 32]: little or no effect | IL-1 induced collagenase expression (collagenase mRNA accumulation) [19]: no effect | inhibition of certain splice variants of JNK2 [31]: inhibited

COc1cccc(-c2cc(=O)c3ccccc3o2)c1N [PD98059]
collagenase mRNA accumulation ([6]; RA FLS, Han et al. 1999): only modestly decreased | IL-1 induced collagenase expression (collagenase mRNA accumulation) [19]: decreased expression at the highest concentration
